Results reported in the NIST ThermoML archive (doi:10.1021/je5010214).

Conditions: Liquid, Vibrating tube method

CCCCCCC [heptane]
Conditions	mass density [kg/m3]
313.15 K, 19932 kPa	686.1
313.15 K, 22058 kPa	687.733
313.15 K, 24862 kPa	690.068
313.15 K, 27869 kPa	692.385
313.15 K, 29957 kPa	693.806
313.15 K, 32107 kPa	695.43
313.15 K, 32980 kPa	696.141
313.15 K, 33002 kPa	696.147
313.15 K, 33981 kPa	697.086
313.15 K, 35045 kPa	697.948
313.15 K, 38127 kPa	700.098
313.15 K, 41978 kPa	702.778
313.15 K, 44946 kPa	704.758
313.15 K, 47880 kPa	706.851
313.15 K, 52097 kPa	709.812
313.15 K, 54924 kPa	711.549
313.15 K, 58082 kPa	713.474
313.15 K, 59932 kPa	714.707
313.15 K, 62004 kPa	716.103
313.15 K, 64954 kPa	717.814
313.15 K, 66113 kPa	718.367
313.16 K, 860.7 kPa	667.671
313.16 K, 39997 kPa	701.327
313.16 K, 50021 kPa	708.33
318.15 K, 100.7 kPa	662.812
318.15 K, 336.3 kPa	663.228
318.15 K, 1105.7 kPa	663.94
318.15 K, 1929.1 kPa	664.905
318.15 K, 2933.2 kPa	665.972
318.15 K, 8989 kPa	672.331
318.15 K, 10074 kPa	673.533
318.15 K, 11896 kPa	675.253
318.15 K, 18102 kPa	681.046
318.15 K, 19985 kPa	682.727
318.15 K, 22094 kPa	684.679
318.15 K, 29998 kPa	691.196
318.15 K, 33016 kPa	693.259
318.15 K, 33180 kPa	693.331
318.15 K, 37838 kPa	697.046
318.15 K, 40092 kPa	698.439
318.15 K, 44884 kPa	701.561
318.15 K, 47944 kPa	703.663
318.15 K, 54944 kPa	708.215
318.15 K, 57972 kPa	710.506
318.15 K, 59922 kPa	711.605
318.15 K, 65022 kPa	714.898
318.15 K, 66028 kPa	715.438
318.16 K, 590.9 kPa	663.443
318.16 K, 891 kPa	663.766
318.16 K, 5020.8 kPa	668.355
318.16 K, 6926.7 kPa	670.309
318.16 K, 14800 kPa	678.075
318.16 K, 24873 kPa	686.865
318.16 K, 27909 kPa	689.38
318.16 K, 31957 kPa	692.414
318.16 K, 34110 kPa	694.119
318.16 K, 35048 kPa	694.934
318.16 K, 41996 kPa	699.6
318.16 K, 49950 kPa	705.2
318.16 K, 52037 kPa	706.412
318.16 K, 61930 kPa	712.85
323.15 K, 102.3 kPa	658.378
323.15 K, 296.1 kPa	658.71
323.15 K, 528.4 kPa	658.782
323.15 K, 994.2 kPa	659.429
323.15 K, 2006.9 kPa	660.61
323.15 K, 2966.6 kPa	661.806
323.15 K, 4996.2 kPa	663.968
323.15 K, 7042.1 kPa	666.276
323.15 K, 9029.9 kPa	667.858
323.15 K, 10090 kPa	669.742
323.15 K, 11914 kPa	670.973
323.15 K, 15111 kPa	674.373
323.15 K, 17981 kPa	677.251
323.15 K, 20038 kPa	678.71
323.15 K, 21995 kPa	680.737
323.15 K, 24993 kPa	683.213
323.15 K, 32079 kPa	689.177
323.15 K, 33103 kPa	689.972
